Experiment [1] concerns R6/2 transgenic mouse model of HD. Put plainly: Rotarod motor performance in R6/2 mice. Type of experiment: in vivo. The conditions noted are these: at 90 days, vs PBS-treated R6/2 mice. The method, then:
Intraperitoneal Dosing: Based upon previous studies (Egorin et al., 1999), a dose response study was performed, treating groups of wild type mice (n=10) and littermate R6/2 mice (n=20) with 100, 200, 400, 600, 1,200, 5,000, and 10,000 mg/kg daily intraperitoneal injection (100 Êl) of sodium butyrate (Acros Organics/Fisher Scientific) dissolved in PBS and made fresh daily. Control groups were treated with PBS injection or untreated. Approximately 240 mice were used for behavioral and survival analyses.
Clinical Assessment: Both motor performance and body weight were measured throughout the study. Training sessions were given on days 21 and 22 to acclimate the mice to the rotarod apparatus (Columbus Instruments, Columbus, Ohio). Motor performance (constant rotation at 16 rpm) was assessed weekly from 23-63 days of age and twice weekly from 63 days of age in the sodium butyrate-treated, PBS-treated R6/2 mice, and wild type littermate control mice. Three 60 sec trials were given during each session and averaged. Body weights were recorded twice weekly at the same time of day in all groups.
Statistics: The data are expressed as the mean+standard error of the mean. Statistical comparisons of rotarod, weight data, and histology data were compared by ANOVA or repeated measures ANOVA. Survival data was analyzed by the Kaplan-Meier survival curves.
In general terms: In the rotarod test animals must keep their balance on a rotating rod.

For experiment [2], the system named is acetylated histone H3 and acetylated histone H4. Put plainly: Histone acetylation assay (Western blot, whole brain). Type of experiment: in vivo, mouse. The method, then:
Histone Acetylation Assay: At 42 days, groups of 10 R6/2 mice and littermate wild-type control mice were treated with daily with the most optimal dose of sodium butyrate (1.2 g/kg), as determined by survival studies, or PBS via intraperitoneal injections for two weeks. The mice were euthanized at 56 days of age and the brains rapidly frozen and stored at −80 βC. Histone acetylation was determined, using a previously reported Western analysis method (Warrel et al., 1998). Histones were isolated from sodium butyrate treated and untreated whole brains. Western blot analysis for histone acetylation was performed using acetylated histone H3 and acetylated histone H4 antibodies (Upstate Biotechnology, Lake Placid, N.Y.). Protein levels were determined via Coomassie Protein Assay (Pierce, Rockford, Ill.). Each of the sample measurements was carried out twice, with the investigator performing the assays (JKK) blind to genotype and treatment group.
A general note: In western blotting, separated proteins are transferred to a membrane and probed.

The subject of experiment [3] is 3-NP induced striatal lesions in R6/2 mice. Put plainly: 3-Nitropropionic acid (3-NP) striatal toxicity in R6/2 mice. Type of experiment: in vivo, mouse. The method, then:
3-Nitropropionic Acid Administration: At six weeks, groups of 10 R6/2 mice were treated with daily 1.2 g/kg sodium butyrate or PBS via intraperitoneal injections for two weeks. At the start of week two, 3-nitropropionic acid (3-NP) (Sigma, St. Louis, Mo.) was dissolved in PBS (pH adjusted to 7.4), made fresh daily, and injected intraperitoneally 9 times at 12 hrs intervals (75 mg/kg) in R6/2 mice. The mice were euthanized 8-10 hrs after the last 3-NP injection, deeply anesthetized and transcardially perfused with buffered 4% paraformaldehyde and processed for histopathologic evaluation. Glycerol cryoprotected brains were frozen sectioned at 50 Êm, stained with cresyl violet, and quantitative analysis of lesion volumes was performed in serial sections as described below.
Stereology/Quantitation: Serial-cut coronal tissue-sections beginning from the most rostral segment of the neostriatum to the level of the anterior commissure (Inter aural 5.34 mm/Bregma 1.54 mm to Inter aural 3.7 mm/Bregma −0.10 mm), were used for huntingtin aggregate analysis. Unbiased stereological counts of huntingtin-positive aggregates ([…]) were obtained from the neostriatum in 10 mice each from sodium butyrate-treated (1.2 g/kg) and PBS-treated R6/2 mice at 90 days using Neurolucida Stereo Investigator software (Microbrightfield, Colchester, Vt.). The total areas of the rostral neostriatum were defined in serial sections in which counting frames were randomly sampled. The optical dissector method was employed estimating the number of huntingtin-positive aggregates. Striatal neuron areas were analyzed by microscopic videocapture using a Windows-based image analysis system for area measurement (Optimas, Bioscan Incorporated, Edmonds, Wash.). The software automatically identifies and measures profiles. All computer identified cell profiles were manually verified as neurons and exported to Microsoft Excel. Cross-sectional areas were analyzed using Statview.

Experiment [4] has as its system MKP-1, α-globin, β-globin, preproenkephalin mRNA. Put plainly: Northern blotting of brain mRNAs. Type of experiment: in vivo, mouse. The conditions noted are these: percentage of untreated R6/2, normalized to β-actin. The method, then:
Northern Blotting: Two micrograms of total RNA from brain samples of sodium butyrate-treated and untreated R6/2 and wild type mice (n=4 each) were separated on a 1.2% agarose 3% formaldehyde gel in 1× MOPS buffer, electrophoretically transferred to a nylon membrane (Genescreen Ill.) in 1× TAE, and dried in a standard utility oven at 65 βC. cDNA probes were prepared from IMAGE clones (Research Genetics, _-globin 555069, _-globin 318205, MKP-1 4235972), or cDNAs described in previous studies (enkephalin and _-actin probe sequences) (Luthi-Carter et al., 2002). Hybridizations and washes were conducted as previously described (Luthi-Carter et al. 2002). Blots were quantitated using a Molecular Dynamics Phosphorimager and its accompanying ImageQuant software. Signals for target mRNAs were expressed as ratios to _-actin signals (on the same blot), and the data was analyzed by unpaired two-tailed Student's t-test.

Entries after “also recorded” stand apart in the source; their conditions may differ. Marks after values point to notes of the source that are not given here.

For the compound `CCCC(=O)[O-].[Na+]` [sodium butyrate], the “percentile increase in rotarod performance” value in experiment [1] (400 mg/kg) worked out at 24.0%; in experiment [1] (600 mg/kg) it was 27.5%; in experiment [1] (1,200 mg/kg), 34.9%. Moreover, the “difference in increased acetylation of H3 and H4 between doses” value in experiment [2] (600 mg/kg/d vs 1.2 g/kg/d) was “did not observe any difference”. In addition, the “H3 and H4 acetylation (Western blot)” value in experiment [2] (1.2 g/kg/d i.p. for two weeks from 42 days, R6/2 brain at 56 days) is recorded as “marked increase”. Also, the “mice with bilateral striatal lesions” value in experiment [3] (1.2 g/kg/d i.p. two weeks, 3-NP in second week, 3-NP/PBS: seven of ten) is listed as “two of ten”. Moreover, in experiment [3] (1.2 g/kg/d i.p. two weeks, 3-NP in second week, vs 3-NP and PBS-treated R6/2), the “neuroprotection from 3-NP striatal damage” value is reported as “prevented 3-NP striatal-induced damage; also recorded: marked neuroprotection; also recorded: nearly complete protection”. Also, the “reduction in lesion volume” value in experiment [3] (1.2 g/kg/d i.p., vs 3-NP/PBS-treated R6/2 mice) came to 73.3%. In addition, the “Northern, NaBu Txd R6/2 vs R6/2” value was 204%^e in experiment [4] (MKP-1 mRNA, Cortex, p<0.0001); 98% in experiment [4] (Preproenkephalin mRNA, Striatum); 159%^c in experiment [4] (α-globin mRNA, Cortex, p<0.01); 206%^d in experiment [4] (β-globin mRNA, Cortex, p<0.001).

Values taken from patent publication US20060069157A1, “Method of ameliorating or abrogating the effects of a neurodegenerative disorder, such as Huntington's disease, by sodium butyrate chemotherapy” (U.S. DEPARTMENT OF VETERANS AFFAIRS, priority 2004, published 2006).
